Results from the supplement of paper PMC6723410.

Tested on: GUMC-403
Assay: viability at highest tested concentration (max response) relative to DMSO (% of DMSO control); higher = less cytotoxic
Settings: library / dose series: MIPE library, 11-point 1:3 dilution; top concentration 46.1 µM; 48 h
Procedure, shortened: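 Viability at the highest tested concentration is given relative to vehicle control. For this, conditionally reprogrammed patient-derived GUMC-403 papilloma cells at 700/well in 1536-well plates were exposed to 23 nL of pinned compound for 48 h. Luminescence from CellTiter-Glo was read on a ViewLux and scaled between empty wells (0%) and vehicle wells (100%).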

Structure (SMILES)	viability
CC(=O)O[C@@]12CO[C@@H]1C[C@H](O)[C@]3(C)[C@@H]2[C@H](OC(=O)C4=CC=CC=C4)[C@]5(O)C[C@H](O)/C(=C(/[C@@H](O)C3=O)C5(C)C)C	117
COC1=CC=C(C=C1)C/2=C(OC3O[C@@H](C)[C@H](O)[C@@H](O)[C@H]3O)/C(=O)C4=C(O2)C(=C(OC5O[C@H](CO)[C@@H](O)[C@H](O)[C@H]5O)C=C4O)CC=C(C)C (stereo partly drawn)	117
CN1CCN(c2cccc(Nc3nc4c(-c5ccc([S+](C)(=O)[O-])cc5)cccn4n3)c2)CC1	125
COc1ccc(/C=C/C(=O)Nc2ccccc2C(=O)O)cc1OC	106
C[N+]1(C)[C@@H]2CC(OC(=O)C(O)(c3cccs3)c3cccs3)C[C@H]1[C@@H]1O[C@@H]12 (stereo partly drawn)	127
C[C@@H](Cc1cc2c(c(C(N)=O)c1)N(CCCO)CC2)NCCOc1ccccc1OCC(F)(F)F	112
O=C(O)CSCC(=O)NC1CCSC1=O (stereo not drawn)	139
C[C@H](NC(=O)Cc1cc(F)cc(F)c1)C(=O)N[C@@H]1C(=O)N(C)c2ccccc2-c2ccccc21	108
CNCC(O)C(O)C(O)C(O)CO.O=C(O)c1ccc(-c2cc3cccnc3c(-c3ccc4nonc4c3)n2)cc1	117
NC(=O)Nc1cc(-c2ccc(CN3CCOCC3)cc2)sc1C(N)=O	70.6
COc1cc2c(Nc3ccc(Br)cc3F)ncnc2cc1OCC1CCN(C)CC1	52.2
O=C(NC[C@H](O)CO)c1ccncc1Nc1ccc(I)cc1F	72.6
COc1cc([C@@H]2c3cc4c(cc3[C@H](O)[C@H]3COC(=O)[C@@H]23)OCO4)cc(OC)c1OC	99.5
COc1cc2ncnc(Nc3cccc(Br)c3)c2cc1OC	81.6
C=CCO/N=C(/C[C@H]1O[C@@H]2O[C@]3(C)CC[C@H]4[C@H](C)CC[C@@H]([C@H]1C)[C@@]24OO3)[C@H]1O[C@@H]2O[C@]3(C)CC[C@H]4[C@H](C)CC[C@@H]([C@H]1C)[C@@]24OO3	92.1
CC(C)(C)c1cc(NC(=O)Nc2ccc(-c3cn4c(n3)sc3cc(OCCN5CCOCC5)ccc34)cc2)no1	121
Cc1cccc(/C=N/Nc2cc(N3CCOCC3)nc(OCCc3ccccn3)n2)c1	87.4

Structure (SMILES)	viability
C#C[C@]1(O)CC[C@H]2[C@@H]3CCc4cc(OC)ccc4[C@H]3CC[C@@]21C	88.2
CC(C)c1onc(-c2c(Cl)cccc2Cl)c1COc1ccc(/C=C/c2cccc(C(=O)O)c2)c(Cl)c1	123
Cc1noc(N[S+](=O)([O-])c2ccc(N)cc2)c1C	130
COc1ccc(COc2cc3oc(=O)c4cc(C(C)O)ccc4c3cc2OC)cc1 (stereo not drawn)	86.3
CC1=CC/2=C(C=C1C)N(C[C@@H](O)[C@@H](O)[C@@H](O)CO)C/3=N/C(=O)NC(=O)C3=N2	123
CC1=NN(c2ccc(C)c(C)c2)C(=O)/C1=N/Nc1cccc(-c2cccc(C(=O)O)c2)c1O	101
CC(O)(C#Cc1ccc2c(c1)N(c1nc(N)ncc1Cl)CC2)c1nccs1 (stereo not drawn)	86.5
CN1C(=O)/C=C(/NCCN(CCO)CCCC2=CC=C(C=C2)[N+]([O-])=O)N(C)C1=O	94.3
Cc1cc(Cl)ccc1OCCCC(=O)NO	89.3
NC(CO)(CO)CCc1ccc(Sc2cccc(OCc3ccccc3)c2)cc1Cl	118
COCCOc1nc(-c2ccc(Cl)c(Cl)c2)n(-c2ccc(NC(=O)CCl)cc2)n1	85.8
CCOC(=O)c1c(CSc2ccccc2)n(C)c2cc(Br)c(O)c(CN(C)C)c12	105
CC[C@H](CC#N)OC(=O)N[C@@H](C)c1cccc(NC(=O)Nc2ccc(-c3cnco3)c(OC)c2)c1	124
COc1cc(N2CCN(C)CC2)ccc1Nc1nc(N)c(C(=O)c2c(Cl)cccc2Cl)s1	120
C\C1=N\N(C(=O)C1)C2=CC=CC=C2	97.2
CN(C)CCCNC(=O)c1ccc(-c2cc(O)c3ncccc3c2)cc1	120
